Reference: patent US20250032456A1, “USE OF L-ERGOTHIONEINE TO AMELIORATE AND PREVENT AGE-RELATED VITREOUS DEGENERATION” (NANJING NUTRABUILDING BIO-TECH CO., LTD., priority 2021, published 2025)

How the values were obtained:
[1] = tested on: rabbits' vitreous gel; experiment: Slit-lamp biomicroscopy of vitreous structure in rabbits with riboflavin/white-light induced vitreous liquefaction; assay type: in vivo, rabbit; conditions: 2 or 10 mg/kg/d by gavage once daily for 7 months, especially in higher dose
Experimental: Fifteen young pigmented rabbits weighing 2.3-4.1 kg and aging 2.5-3 years were used in this experiment. At the onset of the investigation, each eye of every rabbit was examined by slit-lamp biomicroscopy and +60 diopter fundus lens through dilated pupils (2% atropine eye drops) to exclude any preexisting abnormalities. After slit-lamp examination, one drop of 0.5% proparacaine hydrochloride was applied for topic anesthesia, and then 0.1 ml of riboflavin (2×10^^−4 M) was injected through a Millipore filter unit into the central vitreous of both eyes, using a 30-gauge needle. All eyes were then irradiated with white light (1.06×10^15 photons sec-1 cm-2) generated by a carousel slide projector without a lens at a distance of 60 cm for 6 hours. During irradiation, the exposed eyes were frequently treated with topical balanced salt solution (BSS) to prevent corneal drying. Their eyes were examined by using slit-lamp biomicroscopy next day, to confirm if they have serious vitreous liquefaction. They were randomly divided into three groups: (1) non-supplement group (Con, n=5); (2) L-ergothioneine supplement group with low dosage (L-ergothioneine, 2 mg/kg/d, n=5); (3) L-ergothioneine supplement group with high dosage (L-ergothioneine, 10 mg/kg/d, n=5). Some […] were administered L-ergothioneine once daily by gavage in normal saline solution for 7 months. […]

[2] = tested on: rabbits' vitreous gel; experiment: Vitreous gel content by gel-liquid separation of rabbit vitreous samples; assay type: in vivo; conditions: 2 or 10 mg/kg/d by gavage for 7 months; compared with non-supplement group, ***p<0.001
Experimental: Fifteen young pigmented rabbits weighing 2.3-4.1 kg and aging 2.5-3 years were used in this experiment. At the onset of the investigation, each eye of every rabbit was examined by slit-lamp biomicroscopy and +60 diopter fundus lens through dilated pupils (2% atropine eye drops) to exclude any preexisting abnormalities. After slit-lamp examination, one drop of 0.5% proparacaine hydrochloride was applied for topic anesthesia, and then 0.1 ml of riboflavin (2×10^^−4 M) was injected through a Millipore filter unit into the central vitreous of both eyes, using a 30-gauge needle. All eyes were then irradiated with white light (1.06×10^15 photons sec-1 cm-2) generated by a carousel slide projector without a lens at a distance of 60 cm for 6 hours. During irradiation, the exposed eyes were frequently treated with topical balanced salt solution (BSS) to prevent corneal drying. Their eyes were examined by using slit-lamp biomicroscopy next day, to confirm if they have serious vitreous liquefaction. […] The weight of the vitreous gel was determined, and its percentage was calculated as follows: vitreous gel (%)=(separated vitreous gel wet wt (g)/initial vitreous wet wt (g))×100%.

[3] = tested on: Reactive oxygen species (ROS) of rabbits' lens; experiment: Reactive oxygen species quantified by fluorescence spectroscopy using 2',7'-dichlorofluorescein diacetate; assay type: in vivo, rabbit; conditions: 2 or 10 mg/kg/d by gavage for 7 months; compared with non-supplement group, ***p<0.001
Experimental: Fifteen young pigmented rabbits weighing 2.3-4.1 kg and aging 2.5-3 years were used in this experiment. At the onset of the investigation, each eye of every rabbit was examined by slit-lamp biomicroscopy and +60 diopter fundus lens through dilated pupils (2% atropine eye drops) to exclude any preexisting abnormalities. After slit-lamp examination, one drop of 0.5% proparacaine hydrochloride was applied for topic anesthesia, and then 0.1 ml of riboflavin (2×10^^−4 M) was injected through a Millipore filter unit into the central vitreous of both eyes, using a 30-gauge needle. All eyes were then irradiated with white light (1.06×10^15 photons sec-1 cm-2) generated by a carousel slide projector without a lens at a distance of 60 cm for 6 hours. During irradiation, the exposed eyes were frequently treated with topical balanced salt solution (BSS) to prevent corneal drying. […]
Antioxidant capacity of the lens was measured using an assay based on the ability of the sample to inhibit the oxidation of 2,2′-azino-di-[3-ethylbenzthiazoline sulfonate]+ (ABTS) by metmyoglobin. The amount of ABTS+ produced was measured in terms of the decrease in absorbance caused by the antioxidants in the sample. Reactive oxygen species (ROS) were quantified by fluorescence spectroscopy using 2′,7′-dichlorofluorescein diacetate.

Question: How did the “rabbits' vitreous gel observed microscopically (slit-lamp biomicroscopy)” value [1] turn out when `C[N+](C)(C)[C@@H](Cc1c[nH]c(=S)[nH]1)C(=O)[O-]` [L-ergothioneine] was run?
Answer: significantly increased

Question: And the “vitreous gel content (%) of the rabbits' eye (FIG. 1)” value [2]?
Answer: could alleviate vitreous depolymerization and liquefaction

Question: What about the “ROS value of rabbits' lens (FIG. 2)” value [3] of the same compound?
Answer: could scavenge chronic ROS directly and radically
